Results reported in paper PMC7029871, “Development and validation of a sensitive LC-MS/MS method for the quantitation of IMB-YH-4py5-2H, an antituberculosis candidate, and its application to the pharmacokinetic study” (PLoS ONE, 2020).
Entries after “also recorded” stand apart in the source; their conditions may differ. Like-named read-outs stand apart in the source and are kept apart here.

How the values were obtained:
[1] = Metabolic stability assay in human liver microsomes; type: in vitro ADME; conditions: pH 7.4, HLMs 0.1 mg/mL, 37°C, NADPH
Protocol: IMB-YH-4py5-2H was incubated at 37°C for 0, 15, 30, 45, and 60 min in human liver microsomes (HLMs) for the metabolic stability study. The incubation system included 0.1 mg/mL pooled liver microsomes, 100 mM phosphate-buffered saline (PBS, pH 7.4), NADPH regeneration system (the final concentration contained 3.3 mM glucose-6-phosphate, 1.3 mM NADP^+, 0.4 U/mL glucose-6-phosphate dehydrogenase and 3.3 mM MgCl2), and 1 μM IMB-YH-4py5-2H.
(§1) After incubation, the samples were processed as described in “Sample processing”. All experiments were performed in triplicate. The concentration of IMB-YH-4py5-2H was measured using LC-MS/MS analysis.

[2] = compared with YH-8; method and reference not given; cited from earlier work
[3] = test system: intracellular M. tuberculosis H37Rv; assay: Intracellular activity assay in infected macrophages; type: cell-based, Mycobacterium tuberculosis; conditions: for Log10CFU: three-day incubation, infected J744 macrophages, untreated 6.47±0.04
[4] = biological target: T1, CYP1A2 (Homo sapiens, UniProt P05177); assay: Metabolism by recombinant human P450 enzyme; type: in vitro ADME; conditions: recombinant CYP1A2 0.05 nmol/mL, 1 μM, 30 min
T1 construct: purchased Corning (Woburn, MA, USA)
T1 sequence (P05177 1-516): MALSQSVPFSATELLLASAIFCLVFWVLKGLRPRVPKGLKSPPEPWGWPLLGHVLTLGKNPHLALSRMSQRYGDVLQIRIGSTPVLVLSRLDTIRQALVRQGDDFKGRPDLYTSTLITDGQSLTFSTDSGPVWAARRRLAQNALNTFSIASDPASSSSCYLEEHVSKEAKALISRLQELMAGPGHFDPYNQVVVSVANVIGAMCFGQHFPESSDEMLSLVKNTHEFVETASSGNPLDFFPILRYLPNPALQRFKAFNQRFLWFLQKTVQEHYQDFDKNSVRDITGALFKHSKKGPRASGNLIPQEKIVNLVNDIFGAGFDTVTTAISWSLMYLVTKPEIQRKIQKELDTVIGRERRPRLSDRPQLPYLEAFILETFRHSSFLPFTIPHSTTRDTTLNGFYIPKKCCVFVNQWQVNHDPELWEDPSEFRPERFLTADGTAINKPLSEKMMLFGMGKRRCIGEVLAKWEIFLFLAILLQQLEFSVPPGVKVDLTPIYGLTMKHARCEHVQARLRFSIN
Protocol: In addition, to characterize the enzymes that may be involved in microsomal metabolism, IMB-YH-4py5-2H was incubated at 37°C for 30 min with different recombinant human P450 enzymes, i.e., CYP1A2, CYP2A6, CYP2B6, CYP2C8, CYP2C9, CYP2C19, CYP2D6, CYP2E1, CYP3A4 and CYP3A5. The incubation system included CYP isoenzyme at a final concentration of 0.05 nmol/mL, 100 mM PBS (pH 7.4) or 100 mmol/L Tris buffer (pH 7.5, Tris buffer was used in the CYP2C9 and CYP2A6 reaction systems and PBS was used for the other enzymes), NADPH regeneration system, and 1 μM IMB-YH-4py5-2H.
as §1

[5] = Stability of QC samples in rat plasma; type: in vitro ADME; conditions: for %Theoretical, Autosampler: extracted plasma QC; for %Theoretical, Long-term / %Theoretical, 24 h ambient / %Theoretical, freeze-thaw: rat plasma; for %Theoretical, Long-term: 2 weeks at -20°C
Protocol: Six replicates of the QC samples at low, medium and high concentrations subjected to the conditions below were evaluated for the stability of IMB-4py5-2H in rat plasma. Short-term stability was assessed by the analysis of the QCs kept at room temperature for 24 h, which exceeded the routine preparation time of the samples. Long-term stability was determined by assaying the QCs after storage for 2 weeks at −20°C. Freeze–thaw stability was investigated after three freeze (−20°C)–thaw (room temperature) cycles. Post-preparative stability was assessed by analyzing the extracted QC samples kept in autosampler at 4°C for 24 h.

[6] = Pharmacokinetic study in rats, single oral dose; type: in vivo, Sprague-Dawley rats; conditions: for AUC(0-inf) / CL/F / MRT / Tmax / AUC(0-t) / Vd/F / half-life / Cmax: both sexes, Sprague-Dawley; for AUC(0-inf) / CL/F / MRT / Tmax / AUC(0-t) / Vd/F / half-life: plasma, rat; for AUC(0-t): read-out: AUC0-60; for Vd/F: read-out: Vz/F; for half-life: po; for Cmax: rat plasma
Protocol: A total of 18 adult SD rats were randomly divided into three dosing groups (half male and half female). IMB-YH-4py5-2H suspensions were freshly prepared in 1% (w/v) sodium carboxymethyl cellulose (CMC-Na). The rats were fasted with free access to water for 12 h prior to the oral administration of IMB-YH-4py5-2H at doses of 50, 100 or 200 mg/kg and fasted for another 2 h after administration. Blood samples of 0.2 mL were collected via the post-orbital venous plexus vein at 0.033, 0.083, 0.167, 0.333, 0.5, 0.75, 1, 1.5, 2, 4, 6, 8, 12, 24, 36, 48, and 60 h post dosing into a heparinized tube. Plasma samples, obtained by centrifuging blood at 2300 × g for 15 min at 4°C, were stored at −20°C until analysis.
The pharmacokinetic parameters of IMB-YH-4py5-2H were calculated by WinNonlin (Version 6.1, Pharsight Corp., Mountain View, CA, USA) using a non-compartmental model. Data were expressed as the mean ± standard deviation (S.D.).

[7] = extracellular concentration of 2 μg/mL

## CN(C)C(=O)/C=C/C(=O)c1ccc(-c2ccncc2)cc1.Cl [IMB-YH-4py5-2H, (E)-N,N-dimethyl-4-oxo-4-(4-(pyridin-4-yl)phenyl)but-2-enamide hydrochloride]
[1]
  half-life at 1 μM: < 0.25 h
[2]
  water solubility: better water solubility; also recorded: improved water solubility
[3]; 0.5 μg/mL
  Log10CFU: 6.44±0.02 Log10CFU
[3]; 1 μg/mL
  Log10CFU: 6.40±0.05 Log10CFU
[3]; 2 μg/mL
  Log10CFU: 6.02±0.11 Log10CFU
[3]; [7]
  bacterial density reduction on intracellular M. tuberculosis: ~70%
  reduction on intracellular M. tuberculosis: 0.45 log10CFU
[4]
  metabolism by CYP isozyme: high metabolic activity
[5]; autosampler 4°C 24 h, nominal 2.5 ng/mL
  %Theoretical, Autosampler: 100.11 ± 1.20%
[5]; autosampler 4°C 24 h, nominal 20 ng/mL
  %Theoretical, Autosampler: 103.26 ± 6.07%
[5]; autosampler 4°C 24 h, nominal 80 ng/mL
  %Theoretical, Autosampler: 97.85 ± 4.96%
[5]; nominal 2.5 ng/mL
  %Theoretical, Long-term: 92.33 ± 4.21%
[5]; nominal 20 ng/mL
  %Theoretical, Long-term: 91.65 ± 3.91%
[5]; nominal 80 ng/mL
  %Theoretical, Long-term: 94.98 ± 7.26%
[5]; room temperature 24 h, nominal 2.5 ng/mL
  %Theoretical, 24 h ambient: 94.35 ± 3.65%
[5]; room temperature 24 h, nominal 20 ng/mL
  %Theoretical, 24 h ambient: 91.96± 5.79%
[5]; room temperature 24 h, nominal 80 ng/mL
  %Theoretical, 24 h ambient: 103.77 ±2.51%
[5]; three freeze-thaw cycles, nominal 2.5 ng/mL
  %Theoretical, freeze-thaw: 90.11 ± 6.19%
[5]; three freeze-thaw cycles, nominal 20 ng/mL
  %Theoretical, freeze-thaw: 88.79 ± 3.27%
[5]; three freeze-thaw cycles, nominal 80 ng/mL
  %Theoretical, freeze-thaw: 94.17 ± 5.10%
[5]; room temperature 24 h, -20°C 2 weeks, three freeze-thaw cycles, autosampler 4°C 24 h
  stability in rat plasma: stable
[6]; single oral dose 50 mg/kg
  AUC(0-inf): 1.44 ± 0.37 µg·h/mL
  CL/F: 36.8 L/h/kg
  MRT: 7.63 ± 1.58 h
  Tmax: 0.28 ± 0.08 h
  AUC(0-t): 1.4 ± 0.367 µg·h/mL
  Vd/F: 379 ± 100 L/kg
  Cmax: 0.367 ± 0.023 µg/mL
[6]; single oral dose 100 mg/kg
  AUC(0-inf): 2.85 ± 0.43 µg·h/mL
  CL/F: 36.6 L/h/kg
  MRT: 7.7 ± 1.43 h
  Tmax: 0.44 ± 0.09 h
  AUC(0-t): 2.84 ± 0.425 µg·h/mL
  Vd/F: 336 ± 74 L/kg
  Cmax: 0.586 ± 0.0312 µg/mL
[6]; single oral dose 200 mg/kg
  AUC(0-inf): 5.73 ± 0.664 µg·h/mL
  CL/F: 35.3 L/h/kg
  MRT: 10.7 ± 0.85 h
  Tmax: 0.33 h
  AUC(0-t): 5.71 ± 0.659 µg·h/mL
  Vd/F: 394 ± 58 L/kg
  Cmax: 1.3 ± 0.194 µg/mL
[6]; 50 mg/kg, single oral dose 50 mg/kg, read-out: t1/2 (converted)
  half-life: 7.24 ± 1.61 h
[6]; 100 mg/kg, single oral dose 100 mg/kg, read-out: t1/2 (converted)
  half-life: 6.37 ± 0.93 h
[6]; 200 mg/kg, oral, all three dosing groups (50, 100, 200 mg/kg), read-out: half-life (converted)
  half-life: ~7 h
[6]; 200 mg/kg, single oral dose 200 mg/kg, read-out: t1/2 (converted)
  half-life: 7.71 ± 0.41 h
[6]; following the same oral dose, YH-8 data ref 20
  AUC relative to that of YH-8: approximately 2.5 fold
